The values that follow come from ChEMBL document CHEMBL1141384, “Discovery of a potent, selective, and orally active human epidermal growth factor receptor-2 sheddase inhibitor for the treatment of cancer” (J Med Chem, 2007).

SMILES strings stand for the structures. Calls of active or inactive are those of the source. No cut-off for these calls is given here. A value given as a limit tells only on which side of the number the result lay.

The target in series [1] is 72 kDa type IV collagenase (Homo sapiens, UniProt P08253). The experiment in a line: Inhibition of MMP2.
72 kDa type IV collagenase, sequence (P08253 whole entry): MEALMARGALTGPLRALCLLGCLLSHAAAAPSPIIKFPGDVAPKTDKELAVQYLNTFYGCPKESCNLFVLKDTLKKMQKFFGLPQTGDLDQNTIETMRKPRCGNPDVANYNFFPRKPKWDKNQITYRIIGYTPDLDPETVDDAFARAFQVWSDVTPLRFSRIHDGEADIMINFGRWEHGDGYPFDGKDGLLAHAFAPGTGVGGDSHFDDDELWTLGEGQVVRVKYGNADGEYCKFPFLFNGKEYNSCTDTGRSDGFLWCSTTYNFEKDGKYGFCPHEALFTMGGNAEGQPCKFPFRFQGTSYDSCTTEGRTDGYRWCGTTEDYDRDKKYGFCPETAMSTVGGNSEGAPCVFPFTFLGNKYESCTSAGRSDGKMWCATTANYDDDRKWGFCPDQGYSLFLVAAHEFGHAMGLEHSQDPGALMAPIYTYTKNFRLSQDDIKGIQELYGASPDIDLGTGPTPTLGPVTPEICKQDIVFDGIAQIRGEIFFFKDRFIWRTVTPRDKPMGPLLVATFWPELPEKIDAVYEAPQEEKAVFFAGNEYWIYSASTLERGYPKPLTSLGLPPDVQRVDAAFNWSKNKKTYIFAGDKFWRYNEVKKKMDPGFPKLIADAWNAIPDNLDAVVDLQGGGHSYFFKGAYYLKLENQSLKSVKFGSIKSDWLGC
Series [2] has as its target Matrix metalloproteinase-9 (Homo sapiens, UniProt P14780). Kind of series: Inhibition of MMP9.
The target of series [3] is Stromelysin-1 (Homo sapiens, UniProt P08254). The experiment in a line: Inhibition of MMP3.
Stromelysin-1, sequence (P08254 whole entry): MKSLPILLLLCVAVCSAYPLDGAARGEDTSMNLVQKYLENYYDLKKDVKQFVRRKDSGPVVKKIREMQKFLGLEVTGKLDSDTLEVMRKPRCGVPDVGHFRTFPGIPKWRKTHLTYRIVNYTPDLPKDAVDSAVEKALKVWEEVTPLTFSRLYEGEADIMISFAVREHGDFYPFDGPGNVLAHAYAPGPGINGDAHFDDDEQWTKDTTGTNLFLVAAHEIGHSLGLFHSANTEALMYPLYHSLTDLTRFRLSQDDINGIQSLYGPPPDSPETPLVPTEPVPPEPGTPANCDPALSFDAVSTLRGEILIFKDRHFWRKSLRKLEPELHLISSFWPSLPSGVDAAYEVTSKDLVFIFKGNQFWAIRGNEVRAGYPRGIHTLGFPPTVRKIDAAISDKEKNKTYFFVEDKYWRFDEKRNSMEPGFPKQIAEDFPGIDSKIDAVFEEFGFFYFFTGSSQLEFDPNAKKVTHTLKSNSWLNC
Series [4] addresses T1, Interstitial collagenase (Homo sapiens, UniProt P03956).
T1 sequence (P03956 whole entry): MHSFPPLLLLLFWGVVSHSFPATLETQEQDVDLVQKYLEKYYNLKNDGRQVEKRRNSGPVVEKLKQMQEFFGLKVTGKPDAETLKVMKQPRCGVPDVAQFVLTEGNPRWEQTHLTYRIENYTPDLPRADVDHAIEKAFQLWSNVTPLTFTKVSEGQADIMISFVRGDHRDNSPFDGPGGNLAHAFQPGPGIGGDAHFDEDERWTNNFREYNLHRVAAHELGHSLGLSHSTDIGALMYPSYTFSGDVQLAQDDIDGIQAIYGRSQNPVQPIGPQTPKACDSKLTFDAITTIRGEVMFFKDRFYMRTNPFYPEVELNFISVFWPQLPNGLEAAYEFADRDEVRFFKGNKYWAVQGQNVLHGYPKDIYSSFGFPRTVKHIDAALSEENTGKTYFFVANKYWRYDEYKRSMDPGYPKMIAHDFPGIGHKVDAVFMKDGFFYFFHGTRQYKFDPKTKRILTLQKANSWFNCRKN
The experiment in a line: Inhibition of MMP1.

Series [5] has as its target T2, Disintegrin and metalloproteinase domain-containing protein 10 (Homo sapiens, UniProt O14672).
T2 sequence (O14672 whole entry): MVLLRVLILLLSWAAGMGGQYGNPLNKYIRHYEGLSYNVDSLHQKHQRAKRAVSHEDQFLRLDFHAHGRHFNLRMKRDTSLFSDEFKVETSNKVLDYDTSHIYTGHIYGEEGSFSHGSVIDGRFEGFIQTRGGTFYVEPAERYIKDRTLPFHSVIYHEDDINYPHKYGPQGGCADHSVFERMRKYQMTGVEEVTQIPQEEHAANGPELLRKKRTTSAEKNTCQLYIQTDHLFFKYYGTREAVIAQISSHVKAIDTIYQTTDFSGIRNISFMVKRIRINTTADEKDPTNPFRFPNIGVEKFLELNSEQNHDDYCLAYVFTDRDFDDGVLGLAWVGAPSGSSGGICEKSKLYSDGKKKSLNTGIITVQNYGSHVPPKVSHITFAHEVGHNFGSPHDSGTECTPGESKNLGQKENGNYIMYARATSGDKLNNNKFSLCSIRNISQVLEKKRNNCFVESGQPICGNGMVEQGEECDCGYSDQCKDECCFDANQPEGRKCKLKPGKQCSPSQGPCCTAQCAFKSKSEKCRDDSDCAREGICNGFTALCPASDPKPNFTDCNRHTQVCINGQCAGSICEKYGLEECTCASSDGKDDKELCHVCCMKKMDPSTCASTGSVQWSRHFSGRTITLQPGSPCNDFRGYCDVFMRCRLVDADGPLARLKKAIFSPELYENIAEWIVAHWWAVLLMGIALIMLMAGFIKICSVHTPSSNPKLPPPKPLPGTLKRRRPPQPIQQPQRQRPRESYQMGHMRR
Kind of series: Inhibition of ADAM10.

The target of series [6] is Receptor tyrosine-protein kinase erbB-2 (Homo sapiens) (UniProt P04626). The experiment in a line: Inhibition of Her2 sheddase activity in BT474 cell line. The class given is functional, cell-based. Conditions: BT-474.
Receptor tyrosine-protein kinase erbB-2 (Homo sapiens), sequence (P04626 whole entry): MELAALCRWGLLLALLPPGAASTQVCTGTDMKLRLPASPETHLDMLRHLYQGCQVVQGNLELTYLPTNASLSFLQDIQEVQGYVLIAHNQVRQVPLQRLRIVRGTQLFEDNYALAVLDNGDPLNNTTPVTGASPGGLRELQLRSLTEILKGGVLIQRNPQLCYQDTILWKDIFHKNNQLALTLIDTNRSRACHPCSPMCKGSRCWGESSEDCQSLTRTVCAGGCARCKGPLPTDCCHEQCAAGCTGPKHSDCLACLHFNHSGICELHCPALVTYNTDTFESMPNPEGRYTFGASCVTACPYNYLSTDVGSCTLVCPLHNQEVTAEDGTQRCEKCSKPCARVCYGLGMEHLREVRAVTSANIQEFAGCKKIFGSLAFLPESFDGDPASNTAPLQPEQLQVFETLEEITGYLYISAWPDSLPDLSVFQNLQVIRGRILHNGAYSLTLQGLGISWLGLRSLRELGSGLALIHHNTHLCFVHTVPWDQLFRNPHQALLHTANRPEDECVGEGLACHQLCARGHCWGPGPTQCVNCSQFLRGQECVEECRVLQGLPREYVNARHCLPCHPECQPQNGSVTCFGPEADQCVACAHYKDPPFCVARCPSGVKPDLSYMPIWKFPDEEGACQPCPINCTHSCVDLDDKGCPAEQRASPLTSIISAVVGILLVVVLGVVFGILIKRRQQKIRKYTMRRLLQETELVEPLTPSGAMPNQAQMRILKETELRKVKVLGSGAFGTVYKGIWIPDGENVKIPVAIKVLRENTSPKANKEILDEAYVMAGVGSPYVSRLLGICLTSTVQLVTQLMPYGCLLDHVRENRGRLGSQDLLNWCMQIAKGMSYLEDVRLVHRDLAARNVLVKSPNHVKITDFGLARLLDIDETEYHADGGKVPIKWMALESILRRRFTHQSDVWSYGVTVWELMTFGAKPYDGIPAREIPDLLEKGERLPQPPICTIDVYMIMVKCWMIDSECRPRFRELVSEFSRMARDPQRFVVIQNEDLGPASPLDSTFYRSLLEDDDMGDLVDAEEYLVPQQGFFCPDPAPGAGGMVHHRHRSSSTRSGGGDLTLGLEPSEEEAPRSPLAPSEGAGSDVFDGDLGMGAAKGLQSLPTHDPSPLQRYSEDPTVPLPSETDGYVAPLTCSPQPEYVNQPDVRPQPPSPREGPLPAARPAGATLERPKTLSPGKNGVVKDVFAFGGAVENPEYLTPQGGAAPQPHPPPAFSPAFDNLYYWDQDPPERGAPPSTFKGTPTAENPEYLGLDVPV
Series [7] in a line: Protein binding in murine plasma. The format is ADME, organism-based. Conditions: mouse, read-out: PPB (converted).
Series [8] is described as follows: AUC (0-24h) in murine at 10 mg/kg, po. The class given is ADME, organism-based. Conditions: mouse, in vivo. Further details: time < 24 hr, dose 10 mg/kg, route oral.
The nature of series [9]: Cmax in murine at 10 mg/kg, po. Further details: dose 10 mg/kg, route oral. The format is ADME, organism-based. Conditions: mouse, in vivo.
The nature of series [10]: Clearance in murine. The format is ADME, organism-based. Conditions: mouse, in vivo.

Matrix metalloproteinase-9, sequence (P14780 whole entry): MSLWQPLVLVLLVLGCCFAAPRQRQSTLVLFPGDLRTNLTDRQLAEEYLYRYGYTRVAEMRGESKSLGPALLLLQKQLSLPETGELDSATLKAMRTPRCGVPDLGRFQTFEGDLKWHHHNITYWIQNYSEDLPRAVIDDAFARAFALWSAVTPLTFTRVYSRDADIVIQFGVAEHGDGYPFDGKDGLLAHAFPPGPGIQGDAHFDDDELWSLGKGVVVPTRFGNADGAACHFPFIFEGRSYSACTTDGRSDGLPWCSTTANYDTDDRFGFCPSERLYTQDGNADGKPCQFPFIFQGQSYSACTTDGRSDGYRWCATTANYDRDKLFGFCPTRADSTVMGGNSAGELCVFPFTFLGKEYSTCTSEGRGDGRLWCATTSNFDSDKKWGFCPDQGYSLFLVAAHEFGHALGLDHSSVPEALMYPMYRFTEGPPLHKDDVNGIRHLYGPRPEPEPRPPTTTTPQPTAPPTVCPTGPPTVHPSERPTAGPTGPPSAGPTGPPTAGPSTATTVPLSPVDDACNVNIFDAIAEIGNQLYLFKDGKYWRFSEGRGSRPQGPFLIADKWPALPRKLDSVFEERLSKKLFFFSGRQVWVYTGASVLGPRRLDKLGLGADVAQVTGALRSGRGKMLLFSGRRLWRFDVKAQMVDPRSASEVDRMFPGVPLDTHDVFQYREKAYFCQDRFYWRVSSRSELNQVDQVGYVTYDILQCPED

In general, IC50 refers to the concentration needed to halve the response being measured. The low end stands for greater potency, the high end for weaker potency. As to `O=C(NO)[C@H]1CC2(CC2)CN[C@@H]1C(=O)N1CCN2c3ccccc3CC2C1` (stereo partly specified), the IC50 in series [1] is 0.35 µM; in series [2], greater than 5 µM; in [3], greater than 5 µM; in [4], greater than 5 µM; in series [5] it was 0.33 µM.
For the compound `CCC(C)NC(=O)[C@@H]1[C@@H](C(=O)NO)CC2(CC2)CN1C` (stereo partly specified), the IC50 in [1] is greater than 1 µM; in [2], greater than 5 µM; in series [3], greater than 1 µM; in series [4], greater than 5 µM. Further, the result in series [6] was inactive.
In the case of `O=C(NO)[C@H]1CC2(CC2)CN[C@@H]1C(=O)N1CC[C@H](c2ccccc2)C1`, the IC50 in [1] was 0.96 µM; in series [2], greater than 3 µM; in [3], greater than 3 µM; in series [4] it was greater than 5 µM.
`O=C(NO)[C@H]1CC2(CC2)CN[C@@H]1C(=O)N1CC=C(c2ccccc2)C1`: the IC50 in [1] was 0.013 µM; in series [2] it was 0.077 µM; in series [3] it was 0.45 µM; in series [4], 2.5 µM; in series [5], 0.023 µM.
Taken in the same sequence, the figures for `Cc1cc([N+](=O)[O-])ccc1C1=CCN(C(=O)[C@H]2NCC3(CC3)C[C@@H]2C(=O)NO)CC1` were greater than 5 µM, greater than 5 µM, greater than 5 µM, greater than 5 µM and 0.13 µM.
In the case of `O=C(NO)[C@H]1CC2(CC2)CN[C@@H]1C(=O)N1CCC(c2ccccc2)CC1`, the IC50 in [1] was 0.45 µM; in [2], greater than 5 µM; in series [3], greater than 5 µM; in [4], greater than 5 µM; in series [5], 0.32 µM.
Regarding `CN1CC2(CC2)C[C@H](C(=O)NO)[C@H]1C(=O)N1CC=C(c2ccccc2)CC1`, the IC50 in [1] is 0.064 µM; in [2], greater than 5 µM; in series [3], greater than 1 µM; in series [4], greater than 5 µM; in [5] it was 0.077 µM.
Usually AUC(0-t) stands for the area under the concentration-time curve up to a stated or last time point. The Cmax is the highest concentration seen after dosing. In general, clearance refers to the volume of plasma or blood freed of the substance per unit of time. Turning to `COC(=O)N1CC2(CC2)C[C@H](C(=O)NO)[C@H]1C(=O)N1CC=C(c2ccccc2)CC1`, in series [7], the fraction unbound was 0.7. Further, the IC50 is 0.039 µM in [1], 0.428 µM in series [2], 4 µM in series [3] and greater than 5 µM in series [4]. Besides, the AUC(0-t) at 24 h in series [8] was 3.9 µM·h. In series [9], this compound yielded a Cmax of 7.7 µM. For the same compound, the clearance in series [10] was 6.67 mL/min/kg.
In the case of `Cc1ccccc1N1CCN(C(=O)[C@H]2NCC3(CC3)C[C@@H]2C(=O)NO)CC1`, the IC50 in series [1], in series [2], in series [3], in series [4] and in series [5] was greater than 5 µM in each case. Also, the outcome in [6] was inactive.
`O=C(NO)[C@H]1CCCN[C@@H]1C(=O)N1CC[C@H](c2ccccc2)C1` yielded an IC50 in series [5] of 0.48 µM. This counts as sub-micromolar.
With `CC1=C(c2ccccc2)CCN(C(=O)[C@H]2NCC3(CC3)C[C@@H]2C(=O)NO)C1`, the IC50 was greater than 5 µM in series [1]; greater than 5 µM in series [2]; greater than 5 µM in [3]; greater than 5 µM in series [4]; 0.72 µM in series [5].
In the case of `Cc1cc([N+](=O)[O-])ccc1N1CCN(C(=O)[C@H]2NCC3(CC3)C[C@@H]2C(=O)NO)CC1`, the IC50 in [1] is greater than 1 µM; in series [2], greater than 5 µM; in series [3], greater than 1 µM; in [4], greater than 5 µM; in [5] it was 0.11 µM.
With `O=C(NO)[C@H]1CC2(CC2)CN[C@@H]1C(=O)N1CC=C(c2ccccc2)CC1`, the fraction unbound in series [7] was 0.4. The IC50 in series [1] turned out to be 0.005 µM; in series [2], 0.113 µM; in series [3] it was 1.2 µM; in [4], 3.9 µM. The AUC(0-t) at 24 h in series [8] turned out to be 0.35 µM·h. In series [9], this compound had a Cmax of 0.58 µM. This compound showed a clearance in series [10] of 15 mL/min/kg.
Consider `O=C(NO)[C@H]1CC2(CC2)CN[C@@H]1C(=O)N1CCN(c2ccccc2)CC1`, for which the half-inhibitory concentration (IC50) is 0.2 µM in [1], 0.65 µM in [2], greater than 5 µM in [3] and greater than 5 µM in series [4].
Consider `CN1CC2(CC2)C[C@H](C(=O)NO)[C@H]1C(=O)N1CCN(c2ccccc2)CC1`, for which the IC50 in series [1] was 0.15 µM; in [2] it was greater than 5 µM; in [3], greater than 5 µM; in series [4], greater than 5 µM; in series [5], 0.31 µM.
